Measured values reported in ChEMBL document CHEMBL6078635, “Advances in diarylpyrimidines and related analogues as HIV-1 nonnucleoside reverse transcriptase inhibitors (2019-2023)” (Eur J Med Chem, 2024).

Tests used:
[1] = tested on: Human immunodeficiency virus 1; assay: Antiviral activity against HIV1 harboring K103N/Y181C double mutant; type: functional, organism-based
[2] = tested on: Human immunodeficiency virus 1; assay: Antiviral activity against wild type HIV-1; type: functional, organism-based
[3] = Selectivity index, ratio of CC50 for cytotoxicity against human MT4 cells to EC50 for antiviral activity against wild type HIV-1 IIIB infected in human MT4 cells; type: toxicity, cell-based; conditions: read-out: Selectivity Index
MT4 = assay: Cytotoxicity against human MT4 cells assessed as reduction in cell viability after 5 days by MTT assay; type: functional; conditions: MT4, 120 h, time 5 day
[4] = tested on: Human immunodeficiency virus 1; assay: Antiviral activity against HIV1 harboring F227L/V106A double mutant infected in MT4 cells; type: functional, organism-based; conditions: Human immunodeficiency virus 1, MT4
[5] = tested on: Human immunodeficiency virus 1; assay: Antiviral activity against HIV-1 […] mutant; type: functional, organism-based
[6] = tested on: Human immunodeficiency virus 1; assay: Antiviral activity against HIV1 harboring K103N mutant infected in MT4 cells; type: functional, organism-based; conditions: Human immunodeficiency virus 1, MT4
[7] = tested on: Human immunodeficiency virus 1; assay: Antiviral activity against HIV1 harboring E138K mutant infected in MT4 cells; type: functional, organism-based; conditions: Human immunodeficiency virus 1, MT4
[8] = tested on: Human immunodeficiency virus 1; assay: Antiviral activity against HIV1 harboring Y188L mutant infected in MT4 cells; type: functional, organism-based; conditions: Human immunodeficiency virus 1, MT4
[9] = tested on: Human immunodeficiency virus 1; assay: Antiviral activity against HIV1 harboring Y181C mutant infected in MT4 cells; type: functional, organism-based; conditions: Human immunodeficiency virus 1, MT4
[10] = tested on: Human immunodeficiency virus 1; assay: Antiviral activity against wild type HIV-1 3B; type: functional, organism-based; conditions: Human immunodeficiency virus 1, 3B
[11] = Oral bioavailability in human; type: ADME, organism-based; conditions: in vivo
[12] = target: Human immunodeficiency virus type 1 reverse transcriptase (Human immunodeficiency virus 1, UniProt Q72547); assay: Inhibition of wild type HIV-1 Reverse transcriptase
[13] = tested on: Human immunodeficiency virus 1; assay: Antiviral activity against wild type HIV-1 3B infected in human MT4 cells assessed as inhibition of virus-induced cytopathic effect measured for 5 days by MTT assay; type: functional, organism-based; conditions: Human immunodeficiency virus 1, 3B, MT4, 120 h
[14] = tested on: Human immunodeficiency virus 1; assay: Antiviral activity against HIV-1 Y188L mutant infected in human MT4 cells assessed as reduction in virus induced cytopathic effect incubated for 5 days by MTT method; type: functional, organism-based; conditions: Human immunodeficiency virus 1, MT4, 120 h
[15] = tested on: Human immunodeficiency virus 1; assay: Antiviral activity against HIV-1 3B harboring E138K mutant infected in MT4 cells assessed as reduction in virus induced cytopathic effect incubated for 5 days by MTT assay; type: functional, organism-based; conditions: Human immunodeficiency virus 1, 3B, MT4, 120 h
[16] = tested on: Human immunodeficiency virus 1; assay: Antiviral activity against NNRTI-resistant HIV-1 harboring Y181C mutant assessed as inhibition of viral growth; type: functional, organism-based
[17] = tested on: Human immunodeficiency virus 1; assay: Antiviral activity against HIV1 harboring K103N mutant infected in MT4 cells assessed as inhibition of viral growth; type: functional, organism-based; conditions: Human immunodeficiency virus 1, MT4
[18] = tested on: Human immunodeficiency virus 1; assay: Antiviral activity against HIV-1 3B harboring F227L/V106A double mutant infected in MT4 cells assessed as reduction in virus induced cytopathic effect incubated for 5 days by MTT method; type: functional, organism-based; conditions: Human immunodeficiency virus 1, 3B, MT4, 120 h
[19] = tested on: Human immunodeficiency virus 1; assay: Antiviral activity against HIV-1 3B harboring L100I mutant infected in MT4 cells assessed as reduction in virus induced cytopathic effect incubated for 5 days by MTT method; type: functional, organism-based; conditions: Human immunodeficiency virus 1, 3B, MT4, 120 h

Q: With N#Cc1ccc(Nc2nccc(Oc3ccc4cc(C#N)ccc4c3Br)n2)cc1 as the compound, how does the EC50 [1] read?
A: Its EC50 is 240 nM.

Q: And the EC50 [2]?
A: The EC50 was 2 nM.

Q: What about the selectivity ratio [3] of the same compound?
A: The selectivity ratio was 181000.

Q: What about the CC50 (MT4) of the same compound?
A: Its CC50 is 283 µM.

Q: For COc1cc2cc(C#N)ccc2c(OC)c1Oc1ccnc(Nc2ccc(C#N)cc2)n1, which EC50 [1] is on record?
A: Its EC50 is 160 nM.

Q: And the EC50 [2]?
A: Its EC50 is 5 nM.

Q: What about the selectivity ratio [3] of the same compound?
A: Its selectivity ratio is greater than 25000.

Q: What about the CC50 (MT4) of the same compound?
A: Its CC50 is greater than 118 µM.

Q: What does the source list for Cc1cc(C#N)cc(C)c1Oc1ccnc(S(=O)(=O)CC(=O)Nc2ccc(C#N)cc2)n1?
A: EC50 [2]: 2 nM; selectivity ratio [3]: > 3540; CC50 (MT4): > 6.01 µM

Q: For Cc1cc(-c2ccc(C#N)cc2)cc(C)c1Nc1ccnc(Nc2ccc(C#N)cc2)n1, which selectivity ratio [3] is on record?
A: Its selectivity ratio is 2060.

Q: And the CC50 (MT4)?
A: Its CC50 is 2.08 µM.

Q: Which results are given for N#Cc1ccc(Nc2nccc(Oc3ccc4ccccc4c3Br)n2)cc1?
A: EC50 [1]: 6750 nM; EC50 [2]: 2.4 nM; selectivity ratio [3]: 65600; CC50 (MT4): 154 µM

Q: Which EC50 [2] does the source give for Cc1cc(C(C#N)c2ccccc2F)nc(Nc2ccc(C#N)cc2)n1 (stereo not drawn) here?
A: Its EC50 is 1.8 nM.

Q: For Cc1cc(C#Cc2cccnc2)cc(C)c1Oc1ccnc(Nc2ccc(C#N)cc2)n1, which EC50 [1] is on record?
A: The EC50 was 935 nM.

Q: What about the EC50 [4] of the same compound?
A: Its EC50 is 209 nM.

Q: And the EC50 [2]?
A: The EC50 was 3 nM.

Q: And the EC50 [5]?
A: Its EC50 is 76 nM.

Q: And the EC50 [6]?
A: The EC50 was 10 nM.

Q: And the CC50 (MT4)?
A: The CC50 was 3.48 µM.

Q: Which results are given for N#Cc1ccc(Nc2nccc(/C(=N/O)c3ccc(-c4ccc(F)cc4)cc3F)n2)cc1?
A: EC50 [1]: 22700 nM; EC50 [4]: 4600 nM; EC50 [7]: 170 nM; EC50 [2]: 12 nM; EC50 [5]: 400 nM; EC50 [6]: 500 nM; EC50 [8]: 3430 nM; EC50 [9]: 182 nM; CC50 (MT4): > 292 µM

Q: For Cc1cc(/C=C/C#N)cc([N+](=O)[O-])c1Nc1nc(Nc2ccc(C#N)cc2)nc2ccccc12, which EC50 [10] is on record?
A: Its EC50 is 3.4 nM.

Q: And the bioavailability [11]?
A: The bioavailability was 16.5%.

Q: With Cc1cc(/C=C/C#N)cc([N+](=O)[O-])c1Nc1nc(Nc2ccc(C#N)cc2)nc2ccc(Cl)cc12 as the compound, how does the EC50 [10] read?
A: Its EC50 is 10.6 nM.

Q: And the bioavailability [11]?
A: The bioavailability was 16%.

Q: What does the source list for N#Cc1ccc(Nc2ncc(C(N)=O)c(Oc3ccc4cc(C#N)ccc4c3)n2)cc1?
A: EC50 [7]: 11 nM; EC50 [2]: 3.7 nM; selectivity ratio [3]: 84700; CC50 (MT4): > 307 µM

Q: With Cc1cc(-c2ccc(C#N)cc2)cc(C)c1Oc1ccnc(S(=O)(=O)CC(=O)Nc2ccc(C#N)cc2)n1 as the compound, how does the EC50 [1] read?
A: The EC50 was 226 nM.

Q: And the EC50 [4]?
A: Its EC50 is 642 nM.

Q: What about the EC50 [7] of the same compound?
A: The EC50 was 26 nM.

Q: What about the EC50 [2] of the same compound?
A: The EC50 was 6 nM.

Q: And the EC50 [5]?
A: Its EC50 is 8 nM.

Q: And the EC50 [6]?
A: The EC50 was 6 nM.

Q: What about the EC50 [8] of the same compound?
A: Its EC50 is 122 nM.

Q: What about the IC50 [12] of the same compound?
A: The IC50 was 142 nM.

Q: What about the EC50 [9] of the same compound?
A: Its EC50 is 26 nM.

Q: And the selectivity ratio [3]?
A: Its selectivity ratio is 4070.

Q: And the CC50 (MT4)?
A: Its CC50 is 24.4 µM.

Q: With COc1ccc(-c2cc(C)c(Oc3nc(NC4CCN(Cc5ccc(C(N)=O)cc5)CC4)nc4ccsc34)c(C)c2)cc1 as the compound, how does the EC50 [13] read?
A: The EC50 was 52.6 nM.

Q: And the EC50 [1]?
A: The EC50 was 1120 nM.

Q: What about the EC50 [14] of the same compound?
A: The EC50 was 110 nM.

Q: What about the EC50 [15] of the same compound?
A: Its EC50 is 149 nM.

Q: What about the EC50 [16] of the same compound?
A: Its EC50 is 158 nM.

Q: And the EC50 [17]?
A: Its EC50 is 58.4 nM.

Q: What about the EC50 [18] of the same compound?
A: The EC50 was 297 nM.

Q: And the EC50 [19]?
A: Its EC50 is 268 nM.

Q: For Cc1cc(-c2ccc(N(C)C)cc2)cc(C)c1Oc1nc(NC2CCN(Cc3ccc(C(N)=O)cc3)CC2)nc2ccsc12, which EC50 [13] is on record?
A: Its EC50 is 176 nM.

Q: And the EC50 [1]?
A: The EC50 was greater than 23500 nM.

Q: What about the EC50 [14] of the same compound?
A: The EC50 was 556 nM.

Q: And the EC50 [15]?
A: The EC50 was 245 nM.

Q: And the EC50 [16]?
A: The EC50 was 585 nM.

Q: What about the EC50 [17] of the same compound?
A: Its EC50 is 173 nM.

Q: And the EC50 [18]?
A: The EC50 was 1250 nM.

Q: What about the EC50 [19] of the same compound?
A: The EC50 was 1120 nM.
